Measured values: patent US7332473B2, “Peptides and medicinal compositions containing the same” (priority 2002, dated 2008)
Square brackets hold non-standard residues; d marks the D form. Ends that are not written are not given here. Met(O) = CS(=O)CC[C@H](N)C(=O)O

How the values were obtained:
[1] = test system: murine gastric smooth muscles; assay: Inhibition of carbachol-induced constriction of murine gastric smooth muscle (Magnus apparatus); parameters: species or system ICR mice; details: final concentration 10^−6 M, peptide 1 = 100%
[2] = Helical content from circular dichroism spectra; assay type: physicochemical; details: 20 mM Tris-HCl buffer (pH 7.4), calculation by Greenfield et al.
Protocol: VIP (peptide 1, SEQ ID NO: 2), peptide 7 (SEQ ID NO: 8) corresponding to 25 residues at the N-terminus of VIP, and peptide 8 (SEQ ID NO: 9), which is a peptide 7 derivative with its methionine-17 being oxidized, were dissolved in a 20 mM Tris-HCl buffer (pH 7.4), and the circular dichroism spectra thereof were examined using the Jasco J-720 (Jasco Corporation). According to analytical calculation of higher-order structure by Greenfield et al., the helical content of peptide 1 was about 50% (FIG. 2).

His-Ser-Asp-Ala-Val-Phe-Thr-Asp-Asn-Tyr-Thr-Arg-Leu-Arg-Lys-Gln-Met(O)-Ala-Val-Lys-Lys-Tyr-Leu-Asn-Ser-NH2 (HSDAVFTDNYTRLRKQ[Met(O)]AVKKYLNS-NH2; N-terminus assumed; SMILES CC(C)C[C@H](NC(=O)[C@H](Cc1ccc(O)cc1)NC(=O)[C@H](CCCCN)NC(=O)[C@H](CCCCN)NC(=O)[C@@H](NC(=O)[C@H](C)NC(=O)[C@H](CCS(C)=O)NC(=O)[C@H](CCC(N)=O)NC(=O)[C@H](CCCCN)NC(=O)[C@H](CCCNC(=N)N)NC(=O)[C@H](CC(C)C)NC(=O)[C@H](CCCNC(=N)N)NC(=O)[C@@H](NC(=O)[C@H](Cc1ccc(O)cc1)NC(=O)[C@H](CC(N)=O)NC(=O)[C@H](CC(=O)O)NC(=O)[C@@H](NC(=O)[C@H](Cc1ccccc1)NC(=O)[C@@H](NC(=O)[C@H](C)NC(=O)[C@H](CC(=O)O)NC(=O)[C@H](CO)NC(=O)[C@@H](N)Cc1c[nH]cn1)C(C)C)[C@@H](C)O)[C@@H](C)O)C(C)C)C(=O)N[C@@H](CC(N)=O)C(=O)N[C@@H](CO)C(N)=O) [Peptide 8]
maximal inhibition of murine gastric smooth muscle constriction (activity, in words) [1]: significantly attenuated compared to that of peptide 7
helical content [2]: reduced to about half that of peptide 1
